Patent US20250140406A1, “CLASSIFYING TUMORS AND PREDICTING RESPONSIVENESS” (Oncocyte Corporation, priority 2022, published 2025)
Where two headings read alike, the source gives them in different places.

How the values were obtained:
[1] = system: cancer cell lines classified IM, MSL, M; assay: PRISM screen compound sensitivity correlated with IM, MSL and M subtype of cell lines (101 gene signature); format: cell-based; conditions: for TNBCType train: 101 gene signature
[2] = system: cancer cell lines, DetermaIO classes; assay: Association of PRISM compound sensitivity with DetermaIO (DTIO) cell line classes; format: cell-based
[3] = correlation of PRISM compound sensitivity with IM subtype correlation, test cell set (188 cell lines)
[4] = correlation of PRISM compound sensitivity with M subtype correlation, test cell set (188 cell lines)
[5] = correlation of PRISM compound sensitivity with MSL subtype correlation, test cell set (188 cell lines)
[6] = correlation of PRISM compound sensitivity with DTIO, test cell set
[7] = correlation of PRISM compound sensitivity with DTIO, training cell set
[8] = correlation of PRISM compound sensitivity with IM subtype correlation, test cell set
[9] = correlation of PRISM compound sensitivity with M subtype correlation, test cell set
[10] = correlation of PRISM compound sensitivity with MSL subtype correlation, test cell set
[11] = subtype (IM, MSL or M) assigned to the compound by negative correlation of PRISM sensitivity with subtype, training cell set (371 cell lines)
[12] = correlation of PRISM compound sensitivity with DTIO (DetermaIO), test cell set (188 cell lines)
[13] = correlation of PRISM compound sensitivity with DTIO (DetermaIO), training cell set (371 cell lines)
[14] = subtype (IM, MSL or M) with which compound sensitivity is negatively correlated, training cell set (371 cell lines)

SMILES | IM Corr test [1, 3] | M Corr test [1, 4] | MSL Corr test [1, 5] | DTIO Corr test [2, 6] | DTIO Corr train [2, 7] | other results
O=C(O)[C@H](O)[C@@H](O)[C@H](O[C@@H]1O[C@H](CO)[C@H](O)[C@H](O)[C@H]1O)[C@H](O)CO [maltobionic-acid] | 0.1078 | −0.08169 | 0.03716 | 0.13 | 0.09859 | –
CCOC(=O)c1c(C)n(C)c2ccc(O)cc12 [mecarbinate] | – | – | – | −0.09259 | −0.07862 | IM Corr test [1, 8]: −0.08712; M Corr test [1, 9]: 0.04238; MSL Corr test [1, 10]: −0.08851
CC(C)(CCCCCCCCCCC(C)(C)CC(=O)O)CC(=O)O [medica-16] | −0.06152 | 0.01613 | −0.1086 | – | – | TNBCType train [1, 11]: MSL; DTIO Corr test [2, 12]: 0.004343; DTIO Corr train [2, 13]: −0.05017
[O-][n+]1cccc(CO)c1 [mepiroxol] | −0.07855 | 0.0253 | 0.01789 | – | – | DTIO Corr test [2, 12]: −0.08258; DTIO Corr train [2, 13]: −0.1082
CC(C)(C)NCc1cc(Nc2ccnc3cc(Cl)ccc23)c2c(c1O)CCCC2.O=P(O)(O)O.O=P(O)(O)O [naphthoquine-phosphate] | −0.01598 | 0.03443 | −0.02275 | 0.04517 | 0.03212 | TNBCType train [1, 14]: MSL
O=[N+]([O-])c1ccc([As](=O)(O)O)cc1 [nitarsone] | −0.01836 | 0.02346 | −0.02358 | – | – | TNBCType train [1, 11]: MSL; DTIO Corr test [2, 12]: −0.04129; DTIO Corr train [2, 13]: 0.03389
C#C[C@]1(OC(=O)CCCCCC)CC[C@H]2[C@@H]3CCC4=CC(=O)CC[C@@H]4[C@H]3CC[C@@]21C [norethisterone-enanthate] | – | – | – | – | – | IM Corr test [1]: −0.05873; M Corr test [1]: 0.01774; MSL Corr test [1]: 0.1042; DTIO Corr test [2]: 0.009756; DTIO Corr train [2]: −0.1312
COc1ccc(C2=N[C@@H](c3ccc(Cl)cc3)[C@@H](c3ccc(Cl)cc3)N2C(=O)N2CCNC(=O)C2)c(OC(C)C)c1 [nutlin-3] | 0.06852 | −0.07413 | 0.03536 | 0.1503 | 0.1606 | –
C[N+](C)(C)CC#CCN1CCCC1=O [oxotremorine-m] | −0.08895 | 0.05992 | 0.09728 | −0.1128 | −0.0669 | –
CC[C@H](C)[C@@H]1NC(=O)[C@H](Cc2ccc(O)cc2)NC(=O)[C@@H](N)CSSC[C@@H](C(=O)N2CCC[C@H]2C(=O)N[C@@H](CC(C)C)C(=O)NCC(N)=O)NC(=O)[C@H](CC(N)=O)NC(=O)[C@H](CCC(N)=O)NC1=O [oxytocin] | – | – | – | −0.07667 | 0.04167 | IM Corr test [1, 8]: −0.06688; M Corr test [1, 9]: 0.01789; MSL Corr test [1, 10]: −0.03975; TNBCType train ([1]; subtype (IM, MSL or M) with which PRISM compound sensitivity is negatively correlated, training cell set): MSL
CN1C(=O)C(N2CCCCC2)S/C1=C\C(=O)O (stereo not shown) [ozolinone] | −0.1322 | −0.01029 | −0.06039 | −0.09683 | 0.04306 | TNBCType train [1, 14]: MSL
COc1cc(/C=C/c2ccc(O)cc2)cc(OC)c1 [pterostilbene] | – | – | – | – | – | IM Corr test [1]: −0.08513; M Corr test [1]: 0.06063; MSL Corr test [1]: −0.05713; DTIO Corr test [2]: −0.06647; DTIO Corr train [2]: −0.0588
CNC(=O)c1cnn(-c2nc(N)c3ncn([C@@H]4O[C@H](CO)[C@@H](O)[C@H]4O)c3n2)c1 [regadenoson] | −0.08832 | 0.02954 | −0.05759 | −0.1015 | −0.1586 | –
